Assay results as given in patent US6767738B1, “Method of isolating adult mammalian CNS-derived progenitor stem cells using density gradient centrifugation” (The Salk Institute for Biological Studies, priority 1999, dated 2004).

Legend:
[1] = test system: low buoyancy fraction cells from hippocampus or cortex; test: Proliferation of low buoyancy hippocampus or cortex cells in growth medium; format: cell-based, rat; details: 20 ng/ml FGF-2, after 10 days
Description: Tissue dissociation and fractionation: Tissues were finely minced and digested in a solution of papain (2.5 U/ml, Worthington), DNAse (250 U/ml, Worthington), and neutral protease (1 U/ml Dispase, Boehringer) dissolved in Hanks balanced salt solution, as described in Palmer T D, Ray J, Gage F H (1995), FGF-2-Responsive Neuronal Progenitors Reside in Proliferative and Quiescent Regions of the Adult Rodent Brain. Mol Cell Neurosci 6:474-486; and Gage F H, Coates P W, Palmer T D, Kuhn H G, Fisher L J, Suhonen J O, Peterson D A, Suhr S T, Ray J (1995), Survival and differentiation of adult neuronal progenitor cells transplanted to the adult brain. Proc Natl Acad Sci USA 92:11879-11883. Cells and tissue fragments were washed 3 times with Dulbecco's Modified Eagles Medium (DMEM) containing 10% […] bovine serum (defined FBS, Hyclone). Whole digested tissue was then suspended in DMEM 10% FBS, filtered through a sterile 107 μm nylon mesh and thoroughly mixed with an equal volume of PERCOLL™ (polyvinylpyrrolidone-coated silica colloids) solution. […]
Although BrdU-labeled cells fractionated to the low buoyancy population, most of the isolated cells were unlabeled, consistent with the isolation of immature, yet relatively quiescent precursors. […] Cell division was monitored by counting cells and by treating replicate cultures with BrdU at different times post plating. […]

clonal stem cells (AP14) = test: Neuronal differentiation of clonal adult stem cell cultures (Map2ab immunofluorescence); format: cell-based, rat
Protocol: Cell Culture. For proliferating conditions, clonal stem cells (AP14) were cultured in Dulbecco's Modified Eagles Medium/Ham's F12 (DMEM/F12, 1:1) containing N2 supplement (Gibco BRL, Gaithersburg, Md.) and 20 ng/ml rhFGF-2 (provided by A. Baird, Prizm Pharmaceuticals Inc., La Jolla, Calif.). Culture dishes (Becton Dickinsin Labware, Lincoln Park, N.J.) were coated with polyomithine and mouse laminin as previously described by Ray, et al., Proliferation, differentiation and long-term culture of primary hippocampal neurons, Proc Natl Acad Sci USA 90:3602-3606 (1993). For differentiation experiments, cells were plated into polyornithine/laminin coated glass chamber slides (Nunc, Naperville, Ill.) at a density of 2.5—103 per cm2. […] Louis, Mo.). For further differentiation, the medium was replaced by N2 medium containing 0.5% FBS and one of the following: sterile water (control solvent), mouse 2.55 NGF (50 ng/ml, Boehringer Mannheim, Indianapolis, Ind.), rhBDNF (20 ng/ml, Alomone Labs, Jerusalem, Israel), rhNT-3 (40 ng/ml, Genentech, South San Francisco, Calif.). […]
Immunofluorescence. […] Both the average percentage and the absolute number +/− SEM of immunofluorescent cells were determined by counting 10 or 50 high power fields (20×) visualized under fluorescence. The total number of cells was counted using nuclear counterstaining with 4′,6diamidino-2-phenylindole (DAPI, Sigma). […]

Compound: FGF-2: basic fibroblast growth factor, human recombinant, prepared in E. coli
- cells dividing in a given 24-hour period [1]: roughly 85%
- cells labeled following a 48 hour exposure to BrdU [1]: > 99%

Compound: CC1=C(/C=C/C(C)=C/C=C/C(C)=C/C(=O)O)C(C)(C)CCC1 [RA, all-trans retinoic acid]
- number of Map2ab-immunoreactive (IR) neurons relative to growth factor withdrawal and 0.5% serum alone (clonal stem cells (AP14); FGF-2 withdrawal, 500 nM RA plus 0.5% FBS 6 days, then 6 days 0.5% serum alone): more than tripled
- increase in number of MAP2ab-positive cells (clonal stem cells (AP14); RA for 6 days, then RA withdrawn for additional 6 days): 3 fold
